Laboratory results: ChEMBL document CHEMBL1132591, “Synthesis of retinoid X receptor-specific ligands that are potent inducers of adipogenesis in 3T3-L1 cells” (J Med Chem, 1999)

Experiments:
[1] = target: T1, Retinoic acid receptor RXR-gamma (Homo sapiens, UniProt P48443); experiment: Binding affinity towards recombinantly expressed Retinoic acid receptor RXR-gamma in baculoviral system, by using 5 nM [3H]targretin in a competitive binding assay
T1 sequence (P48443 whole entry): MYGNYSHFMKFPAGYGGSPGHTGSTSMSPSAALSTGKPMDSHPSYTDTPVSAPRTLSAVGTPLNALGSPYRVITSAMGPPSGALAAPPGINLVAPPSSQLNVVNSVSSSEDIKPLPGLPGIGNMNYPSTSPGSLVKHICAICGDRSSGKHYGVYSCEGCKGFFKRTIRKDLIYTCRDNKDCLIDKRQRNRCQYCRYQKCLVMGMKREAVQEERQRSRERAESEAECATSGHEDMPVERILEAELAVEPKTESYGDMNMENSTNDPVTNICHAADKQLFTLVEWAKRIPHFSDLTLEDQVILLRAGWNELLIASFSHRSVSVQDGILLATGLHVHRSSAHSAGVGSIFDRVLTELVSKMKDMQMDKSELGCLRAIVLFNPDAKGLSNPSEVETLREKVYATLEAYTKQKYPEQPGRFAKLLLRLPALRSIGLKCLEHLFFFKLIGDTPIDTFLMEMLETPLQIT

[2] = target: T2, Retinoic acid receptor RXR-alpha (Homo sapiens, UniProt P19793); experiment: Binding affinity towards recombinantly expressed Retinoic acid receptor RXR-alpha in baculoviral system, by using 5 nM [3H]targretin in a competitive binding assay
T2 sequence (P19793 whole entry): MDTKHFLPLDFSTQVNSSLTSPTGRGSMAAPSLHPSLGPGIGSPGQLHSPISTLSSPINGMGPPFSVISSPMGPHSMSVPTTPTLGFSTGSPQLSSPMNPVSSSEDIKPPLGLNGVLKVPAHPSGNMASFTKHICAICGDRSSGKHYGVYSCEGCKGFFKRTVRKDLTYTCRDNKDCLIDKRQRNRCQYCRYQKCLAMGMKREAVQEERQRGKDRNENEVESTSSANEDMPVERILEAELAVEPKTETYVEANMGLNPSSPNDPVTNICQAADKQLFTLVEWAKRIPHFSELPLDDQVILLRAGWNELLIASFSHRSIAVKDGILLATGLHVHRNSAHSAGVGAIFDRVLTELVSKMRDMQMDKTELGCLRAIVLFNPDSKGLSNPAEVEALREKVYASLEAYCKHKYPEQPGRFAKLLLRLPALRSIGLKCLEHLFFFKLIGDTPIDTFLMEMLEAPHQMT

[3] = target: T2, Retinoic acid receptor RXR-alpha; experiment: Transcriptional activity was evaluated in CV-1 cells transfected with expression vector for Retinoic acid receptor RXR-alpha; type: functional, cell-based
[4] = target: T1, Retinoic acid receptor RXR-gamma; experiment: Transcriptional activity was evaluated in CV-1 cells transfected with expression vector for Retinoic acid receptor RXR-gamma; type: functional, cell-based
[5] = target: T3, Retinoic acid receptor RXR-beta (Homo sapiens, UniProt P28702); experiment: Transcriptional activity was evaluated in CV-1 cells transfected with expression vector for Retinoic acid receptor RXR-beta; type: functional, cell-based
T3 sequence (P28702 whole entry): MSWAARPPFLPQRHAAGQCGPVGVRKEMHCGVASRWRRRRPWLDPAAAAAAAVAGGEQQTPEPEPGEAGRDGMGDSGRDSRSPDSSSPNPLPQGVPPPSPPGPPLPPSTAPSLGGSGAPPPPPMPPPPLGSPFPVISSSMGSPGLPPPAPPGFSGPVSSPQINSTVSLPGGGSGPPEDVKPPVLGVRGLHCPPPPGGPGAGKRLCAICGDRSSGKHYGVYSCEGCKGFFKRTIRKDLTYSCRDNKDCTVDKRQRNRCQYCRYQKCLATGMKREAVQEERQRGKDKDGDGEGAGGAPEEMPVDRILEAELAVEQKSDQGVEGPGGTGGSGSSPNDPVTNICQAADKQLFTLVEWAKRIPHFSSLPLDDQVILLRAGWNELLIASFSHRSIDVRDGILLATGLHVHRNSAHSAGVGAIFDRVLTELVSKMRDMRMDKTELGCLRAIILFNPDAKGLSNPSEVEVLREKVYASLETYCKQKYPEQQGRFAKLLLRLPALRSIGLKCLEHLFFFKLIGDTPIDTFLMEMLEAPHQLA

[6] = target: T3, Retinoic acid receptor RXR-beta; experiment: Binding affinity towards recombinantly expressed Retinoic acid receptor RXR-beta in baculoviral system, by using 5 nM [3H]targretin in a competitive binding assay
[7] = target: T4, Retinoic acid receptor beta (Homo sapiens) (UniProt P10826); experiment: Percent transcriptional activation relative to ATRA in CV-1 cells expressing Retinoic acid receptor RAR beta; type: functional, cell-based
T4 sequence (whole entry): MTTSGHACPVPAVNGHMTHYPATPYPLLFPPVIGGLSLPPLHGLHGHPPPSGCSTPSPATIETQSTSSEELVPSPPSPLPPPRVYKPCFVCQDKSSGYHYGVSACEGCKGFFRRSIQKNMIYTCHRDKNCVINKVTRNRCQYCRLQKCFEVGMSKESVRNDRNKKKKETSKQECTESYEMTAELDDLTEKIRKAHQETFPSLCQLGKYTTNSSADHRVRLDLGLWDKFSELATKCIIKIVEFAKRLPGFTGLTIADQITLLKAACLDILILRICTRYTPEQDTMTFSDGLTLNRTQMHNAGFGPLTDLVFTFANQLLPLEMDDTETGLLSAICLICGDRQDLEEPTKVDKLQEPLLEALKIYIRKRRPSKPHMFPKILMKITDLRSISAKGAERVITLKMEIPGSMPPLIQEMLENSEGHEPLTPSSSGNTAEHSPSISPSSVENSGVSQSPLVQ

[8] = target: T5, Retinoic acid receptor alpha (Homo sapiens) (UniProt P10276); experiment: Percent transcriptional activation relative to ATRA in CV-1 cells expressing Retinoic acid receptor RAR alpha; type: functional, cell-based
T5 sequence (whole entry): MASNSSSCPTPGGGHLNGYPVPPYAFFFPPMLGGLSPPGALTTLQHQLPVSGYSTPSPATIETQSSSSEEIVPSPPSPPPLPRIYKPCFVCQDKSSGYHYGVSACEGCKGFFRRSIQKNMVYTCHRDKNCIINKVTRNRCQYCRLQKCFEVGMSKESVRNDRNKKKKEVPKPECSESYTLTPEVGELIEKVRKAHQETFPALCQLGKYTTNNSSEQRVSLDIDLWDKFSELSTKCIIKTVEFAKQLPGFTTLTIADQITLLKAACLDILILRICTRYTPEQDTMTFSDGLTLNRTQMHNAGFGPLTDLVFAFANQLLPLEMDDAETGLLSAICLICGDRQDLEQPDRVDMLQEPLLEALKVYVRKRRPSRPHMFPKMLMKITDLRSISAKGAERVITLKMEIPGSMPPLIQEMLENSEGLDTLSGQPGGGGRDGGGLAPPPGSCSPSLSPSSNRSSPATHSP

[9] = target: T6, Retinoic acid receptor RXR-beta (Homo sapiens) (UniProt P28702); experiment: Percent transcriptional activation relative to ATRA in CV-1 cells expressing Retinoid X receptor RXR beta; type: functional, cell-based
T6 sequence (whole entry): T3 sequence (P28702 whole entry)

[10] = target: T7, Retinoic acid receptor gamma (Homo sapiens) (UniProt P13631); experiment: Percent transcriptional activation relative to ATRA in CV-1 cells expressing Retinoic acid receptor RAR gamma; type: functional, cell-based
T7 sequence (whole entry): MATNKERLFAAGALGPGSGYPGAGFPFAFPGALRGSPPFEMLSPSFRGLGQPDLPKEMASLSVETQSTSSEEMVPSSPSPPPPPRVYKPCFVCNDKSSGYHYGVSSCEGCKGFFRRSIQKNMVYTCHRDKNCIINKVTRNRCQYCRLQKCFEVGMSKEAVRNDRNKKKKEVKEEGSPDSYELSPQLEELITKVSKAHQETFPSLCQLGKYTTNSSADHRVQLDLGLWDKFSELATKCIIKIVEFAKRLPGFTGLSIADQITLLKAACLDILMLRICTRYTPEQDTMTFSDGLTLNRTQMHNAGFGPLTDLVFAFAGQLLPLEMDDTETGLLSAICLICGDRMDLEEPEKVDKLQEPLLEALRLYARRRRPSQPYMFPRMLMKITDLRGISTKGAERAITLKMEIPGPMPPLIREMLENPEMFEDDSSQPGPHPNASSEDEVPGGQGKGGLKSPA

[11] = target: T8, Retinoic acid receptor beta (Homo sapiens, UniProt P10826); experiment: Inhibition of [3H]ATRA binding to baculovirus expressed Retinoic acid receptor RAR beta
T8 sequence (P10826 whole entry): T4 sequence (whole entry)

[12] = target: T9, Retinoic acid receptor alpha (Homo sapiens, UniProt P10276); experiment: Inhibition of [3H]ATRA binding to baculovirus expressed Retinoic acid receptor RAR alpha
T9 sequence (P10276 whole entry): T5 sequence (whole entry)

[13] = target: T10, Retinoic acid receptor gamma (Homo sapiens, UniProt P13631); experiment: Inhibition of [3H]-ATRA binding to baculovirus expressed Retinoic acid receptor RAR gamma
T10 sequence (P13631 whole entry): T7 sequence (whole entry)

Compound	Ki [1] [nM]	Ki [2] [nM]	EC50 [3] [nM]	EC50 [4] [nM]	EC50 [5] [nM]	Ki [6] [nM]	Efficacy [7] [%]	Efficacy [8] [%]	Efficacy [9] [%]	Efficacy [10] [%]	Ki [11] [nM]	Ki [12] [nM]	Ki [13] [nM]
CO/N=C(/c1ccc(C(=O)O)cc1)c1cc2c(cc1C)C(C)(C)CCC2(C)C	238	394	384	254	377	> 1000							
Cc1cc2c(cc1/C(=N/OCC#N)c1ccc(C(=O)O)cc1)C(C)(C)CCC2(C)C	14	11	12	11	25	14							
CO/N=C(/c1ccc(C(=O)O)cc1)c1ccc2c(c1)C(C)(C)CCC2(C)C	558	> 1000	253	206	207	363							
CC1(C)CCC(C)(C)c2cc(/C(=N/O)c3ccc(C(=O)O)cc3)c(Br)cc21	57	12	27	26	32	6							
Cc1cc2c(cc1/C(=N/OC(C)(C)C)c1ccc(C(=O)O)cc1)C(C)(C)CCC2(C)C	445	484	> 10000	> 10000	> 10000	623							
CC1(C)CCC(C)(C)c2cc(/C(=N/O)c3ccc(C(=O)O)cc3)ccc21	5050	4230	2960	2890	> 10000	3360							
Cc1cc2c(cc1/C(=N/O)c1ccc(C(=O)O)cc1)C(C)(C)CCC2(C)C	5			7	14	5	10	6	81	13			
Cc1cc2c(cc1/C(=N\OC(C)(C)C)c1ccc(C(=O)O)cc1)C(C)(C)CCC2(C)C	> 1000	> 1000	> 10000	> 10000	> 10000	> 1000							
Cc1cc2c(cc1/C(=N/OCC(=O)O)c1ccc(C(=O)O)cc1)C(C)(C)CCC2(C)C	> 1000	> 1000	713	1380	1380	> 1000							
Cc1cc2c(cc1/C(=N/OCCN)c1ccc(C(=O)O)cc1)C(C)(C)CCC2(C)C	> 1000	> 1000	350	306	61	> 1000							
CCCCO/N=C(\c1ccc(C(=O)O)cc1)c1cc2c(cc1C)C(C)(C)CCC2(C)C	224	177	86	99	157	283							
Cc1cc2c(cc1/C(=N\O)c1ccc(C(=O)O)cc1)C(C)(C)CCC2(C)C	209			34	165	120							

The remaining lines, values ahead:

Ki [1] [nM]	Ki [2] [nM]	EC50 [3] [nM]	EC50 [4] [nM]	EC50 [5] [nM]	Ki [6] [nM]	Efficacy [7] [%]	Efficacy [8] [%]	Efficacy [9] [%]	Efficacy [10] [%]	Ki [11] [nM]	Ki [12] [nM]	Ki [13] [nM]	Compound
467	620	> 10000	> 10000	> 10000	> 1000								CCO/N=C(/c1ccc(C(=O)O)cc1)c1cc2c(cc1C)C(C)(C)CCC2(C)C
8	9	5	4	10	8	5	2	90	2	> 10000	> 10000	> 10000	CO/N=C(\c1ccc(C(=O)O)cc1)c1cc2c(cc1C)C(C)(C)CCC2(C)C
57	6	32	28	37	61								CCCO/N=C(\c1ccc(C(=O)O)cc1)c1cc2c(cc1C)C(C)(C)CCC2(C)C
80	7	6	7	18	15								C=CCO/N=C(\c1ccc(C(=O)O)cc1)c1cc2c(cc1C)C(C)(C)CCC2(C)C
42	26	5	9	12	58								CCO/N=C(\c1ccc(C(=O)O)cc1)c1cc2c(cc1C)C(C)(C)CCC2(C)C
